Reference: ChEMBL document CHEMBL1129730, “Mechanistic studies on the inactivation of papain by epoxysuccinyl inhibitors” (J Med Chem, 1996)
“And” between values parts separate entries of the source, which are not always exact repeats. Equal entries are not always repeated.

Key:
Papain = biological target: T1, Papain (Carica papaya, UniProt P00784); assay: Kinetic constant Apparent binding constant (Ki`) for the inhibition of papain conducted in 0.1 M phosphate, pH 6.8, at 30 degree C
T1 sequence (P00784 whole entry): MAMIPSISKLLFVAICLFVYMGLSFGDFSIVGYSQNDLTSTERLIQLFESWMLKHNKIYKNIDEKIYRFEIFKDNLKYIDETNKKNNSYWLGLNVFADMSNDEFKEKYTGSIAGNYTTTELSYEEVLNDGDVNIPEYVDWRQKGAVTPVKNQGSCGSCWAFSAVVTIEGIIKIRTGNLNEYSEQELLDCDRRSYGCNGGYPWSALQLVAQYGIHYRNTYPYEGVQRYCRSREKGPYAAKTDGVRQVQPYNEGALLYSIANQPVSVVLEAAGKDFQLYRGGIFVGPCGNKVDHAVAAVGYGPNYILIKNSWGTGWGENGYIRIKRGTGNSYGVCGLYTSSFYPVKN

Papain (Carica papaya) [1] = biological target: T2, Papain (Carica papaya) (UniProt P00784); assay: Kinetic constant First order rate of inactivation (K3) for the inhibition of papain conducted in 0.1 M phosphate, pH 6.8, at 30 degree C
T2 sequence (whole entry): T1 sequence (P00784 whole entry)

Papain (Carica papaya) [2] = biological target: T2, Papain (Carica papaya); assay: Inhibition of papain depend on Acid dissociation constant of the protein Papain

Row | Ki (Papain) | k3 (Papain (Carica papaya) [1]) | pKa (Papain (Carica papaya) [2]) | Structure (SMILES)
1 | 170 µM | 0.47 s⁻¹ | – | CC(=O)[C@H]1O[C@@H]1C(=O)N[C@@H](CC(C)C)C(=O)NCCC(C)C
2 | 6.6 µM | 0.67 s⁻¹ | – | CC(C)CCNC(=O)[C@H](CC(C)C)NC(=O)[C@H]1O[C@@H]1C(=O)NO
3 | 51 µM | 0.35 s⁻¹ | – | CC(C)CCNC(=O)[C@H](CC(C)C)NC(=O)[C@H]1O[C@@H]1C(N)=O
4 | 2.4 µM | 0.71 s⁻¹ | 3.93 and 4.09 | CC(C)CCNC(=O)[C@H](CC(C)C)NC(=O)[C@H]1O[C@@H]1C(=O)O [E-64C]
5 | 52 µM | 0.059 s⁻¹ | – | CCOC(=O)[C@H]1O[C@@H]1C(=O)N[C@@H](CC(C)C)C(=O)NCCC(C)C [ALOXISTATIN]
6 | 4400 µM | 0.019 s⁻¹ | – | CC(C)CCNC(=O)[C@H](CC(C)C)NC(=O)[C@H]1O[C@@H]1CO
